Data on 10 molecules can be found in patent publication US5428182A, “Bile acid derivatives, process for their preparation and use of these compounds as pharmaceuticals” (Hoechst Aktiengesellschaft, priority 1992, dated 1995).

The assay has as its target T1, Na^+ -dependent bile acid transport system (Oryctolagus cuniculus, UniProt Q28727).
T1 construct: Brush border membrane vesicles from the intestinal cells of the small intestine were prepared by the so-called Mg^2+ precipitation method; from tissue; host or cells: terminal ileum (terminal 7/10 of small intestine) of male New Zealand rabbits, brush border membrane vesicles
T1 sequence (Q28727 1-347): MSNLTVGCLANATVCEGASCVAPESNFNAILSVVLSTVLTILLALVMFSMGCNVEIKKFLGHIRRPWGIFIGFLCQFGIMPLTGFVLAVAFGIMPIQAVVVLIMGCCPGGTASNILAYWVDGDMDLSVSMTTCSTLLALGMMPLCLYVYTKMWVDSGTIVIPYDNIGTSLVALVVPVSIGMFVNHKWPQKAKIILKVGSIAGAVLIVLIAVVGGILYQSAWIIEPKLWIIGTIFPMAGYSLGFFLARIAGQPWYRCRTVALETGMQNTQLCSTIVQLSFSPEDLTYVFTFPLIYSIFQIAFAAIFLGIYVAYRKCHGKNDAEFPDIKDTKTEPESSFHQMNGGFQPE
The assay can be described thus: inhibition of Na+-dependent [3H]-taurocholate absorption in brush border membrane vesicles of rabbit ileum (membrane filtration technique). In kind it is biochemical. The following applies: 50 μM taurocholate, customarily 1 minute, pH 7.4; for IC50Na (TCDC) / IC50Na (Substance): quotient of IC50Na of the standard TCDC and of the substance, Na+-dependent transport (difference Na-T-B minus K-T-B); for IC50 (TCDC) / IC50 (Substance): quotient of IC50 of the standard taurochenodeoxycholate (TCDC) and of the substance. As to the method:
The biological testing of the compounds according to the invention was carried out by determining the inhibition of [^3 H]-taurocholate absorption in brush border membrane vesicles of the rabbit ileum. The inhibition test was carried out as follows:
Brush border membrane vesicles from the intestinal cells of the small intestine were prepared by the so-called Mg^2+ precipitation method. Male New Zealand rabbits (2 to 2.5 kg body weight) were sacrificed by intravenous injection of 0.5 ml of an aqueous solution of 2.5 mg of tetracaine HCl, 100 T 61® and 25 mg of mebezonium iodide. The small intestine was removed and rinsed with ice-cold physiological saline solution. The terminal 7/10 of the small intestine (measured in the oral-rectal direction, i.e. the terminal ileum, which contains the active Na^+ -dependent bile acid transport system) were used for the preparation of the brush border membrane vesicles. The intestines were frozen under nitrogen at -80° C. in plastic bags. For the preparation of the membrane vesicles, the frozen intestines were thawed at 30° C. in a water bath. The mucosa was scraped off and suspended in 60 ml of ice-cold 12 mM tris/HCl buffer (pH 7.1)/300 mM mannitol, 5 mM EGTA/ 10 mg/l of phenylmethylsulfonyl fluoride/l mg/l of trypsin inhibitor from soybeans (32 U/mg)/0.5 mg/l of trypsin inhibitor from bovine lung (193 U/mg)/5 mg/l of bacitracin. After dilution to 300 ml with ice-cold distilled water, the suspension was homogenized using an Ultraturrax (18-rod, IKAWerk Staufen, FRG) for 3 minutes at 75% maximum power with ice-cooling. After addition of 3 ml of 1M MgCl2 solution (final concentration 10 mM), the homogenate was allowed to stand at 0° C. for exactly 1 minute. As a result of addition of Mg^2+, the cell membranes aggregate and precipitate with the exception of the brush border membranes. After centrifugation at 3000×g for 15 minutes (5000 rpm, SS-34 rotor), the precipitate is discarded and the supernatant which contains the brush border membranes is centrifuged at […] for 30 minutes (15,000 rpm, SS-34 rotor). The supernatant was discarded and the precipitate was rehomogenized in 60 ml of 12 mM tris/HCl buffer (pH 7.1)/60 mM mannitol/5 mM EGTA using a Potter Elvejhem homogenizer (Braun Melsungen, 900 rpm, 10 strokes). After addition of 0.1 ml of 1M MgCl2 solution and an incubation time of 15 minutes at 0° C., centrifugation was once more carried out at 3000×g for 15 minutes. The supernatant was then centrifuged again at 46,000×g (15,000 rpm, SS-34 rotor) for 30 minutes. The precipitate was taken up in 30 ml of 10 mM tris/hepes buffer (pH 7.4)/300 mM mannitol and homogeneously resuspended at 1000 rpm by 20 strokes in a Potter Elvejhem homogenizer. After centrifugation at 48,000×g (20,000 rpm, SS-34 rotor) for 30 minutes, the precipitate was taken up in 0.5 to 2 ml of tris/HEPES buffer (pH 7.4)/280mM mannitol (final concentration 20 mg/ml) and resuspended with the aid of a tuberculin syringe having a 27 gauge needle. The vesicles were either used immediately after preparation for transport investigations or stored in liquid nitrogen at -196° C. in 4 mg portions.
The absorption of substrates in the brush border membrane vesicles described above was determined by means of the so-called membrane filtration technique. 10 μl of the vesicle suspension (100 μg of protein) were pipetted as drops onto the wall of a polystyrene incubation tube (11×70 mm) which contained the incubation medium with the appropriate ligands (90 μl). The incubation medium contained 0.75 μl=0.75 μCi of [^3 H(G)]-taurocholate (specific activity: 2.1 Ci/mMol)/0.5 μl of 10 mM taurocholate/8.75 μl of sodium transport buffer (10 mM tris/HEPES (pH 7.4)/100 mM mannitol/100 mM NaCl) (Na-T-B) or 8.75 μl of potassium transport buffer (10 mM tris/hepes (pH 7.4)/100 mM mannitol/100 mM KCl) (K-T-B) and 80 μl of the inhibitor solution concerned, depending on the experiment, dissolved in Na-T buffer or K-T buffer. […]

In the case of `C[C@H](CCC(=O)O)[C@H]1CC[C@H]2[C@@H]3[C@H](O)C[C@@H]4C[C@@H](OCCNC(=O)CCC(CCC(=O)NCCO[C@H]5CC[C@@]6(C)[C@@H](C5)C[C@@H](O)[C@@H]5[C@@H]6C[C@H](O)[C@]6(C)[C@@H]([C@H](C)CCC(=O)O)CC[C@@H]56)(CCC(=O)NCCO[C@H]5CC[C@@]6(C)[C@@H](C5)C[C@@H](O)[C@@H]5[C@@H]6C[C@H](O)[C@]6(C)[C@@H]([C@H](C)CCC(=O)O)CC[C@@H]56)[N+](=O)[O-])CC[C@]4(C)[C@H]3C[C@H](O)[C@]12C` [Example 7], the “IC50Na (TCDC) / IC50Na (Substance)” value was found to be 0.34 and the “IC50 (TCDC) / IC50 (Substance)” value worked out at 0.29.

As for `C[C@H](CCC(=O)O)[C@H]1CC[C@H]2[C@@H]3[C@H](O)C[C@@H]4C[C@@H](OCCNC(=O)CCOCC(C)(COCCC(=O)NCCO[C@H]5CC[C@@]6(C)[C@@H](C5)C[C@@H](O)[C@@H]5[C@@H]6C[C@H](O)[C@]6(C)[C@@H]([C@H](C)CCC(=O)O)CC[C@@H]56)COCCC(=O)NCCO[C@H]5CC[C@@]6(C)[C@@H](C5)C[C@@H](O)[C@@H]5[C@@H]6C[C@H](O)[C@]6(C)[C@@H]([C@H](C)CCC(=O)O)CC[C@@H]56)CC[C@]4(C)[C@H]3C[C@H](O)[C@]12C` [Example 10], the “IC50Na (TCDC) / IC50Na (Substance)” value amounted to 0.26 and the “IC50 (TCDC) / IC50 (Substance)” value was found to be 0.24.

As for `C[C@H](CCC(=O)O)[C@H]1CC[C@H]2[C@@H]3[C@H](O)C[C@@H]4C[C@@H](NC(=O)CCOCCCOCC(C)(COCCCOCCC(=O)N[C@H]5CC[C@@]6(C)[C@@H](C5)C[C@@H](O)[C@@H]5[C@@H]6C[C@H](O)[C@]6(C)[C@@H]([C@H](C)CCC(=O)O)CC[C@@H]56)COCCCOCCC(=O)N[C@H]5CC[C@@]6(C)[C@@H](C5)C[C@@H](O)[C@@H]5[C@@H]6C[C@H](O)[C@]6(C)[C@@H]([C@H](C)CCC(=O)O)CC[C@@H]56)CC[C@]4(C)[C@H]3C[C@H](O)[C@]12C` [Example 11], the “IC50Na (TCDC) / IC50Na (Substance)” value was 0.36 and the “IC50 (TCDC) / IC50 (Substance)” value was found to be 0.29.

On to `C[C@H](CCC(=O)O)[C@H]1CC[C@H]2[C@@H]3[C@H](O)C[C@@H]4C[C@@H](OCCCCCCNC(=O)[C@]5(C)C[C@](C)(C(=O)NCCCCCCO[C@H]6CC[C@@]7(C)[C@@H](C6)C[C@@H](O)[C@@H]6[C@@H]7C[C@H](O)[C@]7(C)[C@@H]([C@H](C)CCC(=O)O)CC[C@@H]67)C[C@](C)(C(=O)NCCCCCCO[C@H]6CC[C@@]7(C)[C@@H](C6)C[C@@H](O)[C@@H]6[C@@H]7C[C@H](O)[C@]7(C)[C@@H]([C@H](C)CCC(=O)O)CC[C@@H]67)C5)CC[C@]4(C)[C@H]3C[C@H](O)[C@]12C` [Example 16], for which the “IC50Na (TCDC) / IC50Na (Substance)” value worked out at 0.31 and the “IC50 (TCDC) / IC50 (Substance)” value is reported as 0.37.

In the case of `C[C@H](CCC(=O)O)[C@H]1CC[C@H]2[C@@H]3[C@H](O)C[C@@H]4C[C@H](CCNC(=O)c5cc(C(=O)NCC[C@@H]6CC[C@@]7(C)[C@@H](C6)C[C@@H](O)[C@@H]6[C@@H]7C[C@H](O)[C@]7(C)[C@@H]([C@H](C)CCC(=O)O)CC[C@@H]67)cc(C(=O)NCC[C@@H]6CC[C@@]7(C)[C@@H](C6)C[C@@H](O)[C@@H]6[C@@H]7C[C@H](O)[C@]7(C)[C@@H]([C@H](C)CCC(=O)O)CC[C@@H]67)c5)CC[C@]4(C)[C@H]3C[C@H](O)[C@]12C` [Example 18], the “IC50Na (TCDC) / IC50Na (Substance)” value amounted to 0.76 and the “IC50 (TCDC) / IC50 (Substance)” value is on record as 0.85.

As for `C[C@H](CCC(=O)O)[C@H]1CC[C@H]2[C@@H]3[C@H](O)C[C@@H]4C[C@@H](OCCCCCNC(=O)c5cc(C(=O)NCCCCCO[C@H]6CC[C@@]7(C)[C@@H](C6)C[C@@H](O)[C@@H]6[C@@H]7C[C@H](O)[C@]7(C)[C@@H]([C@H](C)CCC(=O)O)CC[C@@H]67)cc(C(=O)NCCCCCO[C@H]6CC[C@@]7(C)[C@@H](C6)C[C@@H](O)[C@@H]6[C@@H]7C[C@H](O)[C@]7(C)[C@@H]([C@H](C)CCC(=O)O)CC[C@@H]67)c5)CC[C@]4(C)[C@H]3C[C@H](O)[C@]12C` [Example 20], the “IC50Na (TCDC) / IC50Na (Substance)” value is on record as 0.86 and the “IC50 (TCDC) / IC50 (Substance)” value is 0.43.

For `C[C@H](CCC(=O)O)[C@H]1CC[C@H]2[C@@H]3[C@H](O)C[C@@H]4C[C@@H](OCCCCCCNC(=O)c5cc(C(=O)NCCCCCCO[C@H]6CC[C@@]7(C)[C@@H](C6)C[C@@H](O)[C@@H]6[C@@H]7C[C@H](O)[C@]7(C)[C@@H]([C@H](C)CCC(=O)O)CC[C@@H]67)cc(C(=O)NCCCCCCO[C@H]6CC[C@@]7(C)[C@@H](C6)C[C@@H](O)[C@@H]6[C@@H]7C[C@H](O)[C@]7(C)[C@@H]([C@H](C)CCC(=O)O)CC[C@@H]67)c5)CC[C@]4(C)[C@H]3C[C@H](O)[C@]12C` [Example 21], the “IC50Na (TCDC) / IC50Na (Substance)” value was found to be 0.59 and the “IC50 (TCDC) / IC50 (Substance)” value is reported as 0.29.

For `C[C@H](CCC(=O)O)[C@H]1CC[C@H]2[C@@H]3[C@H](O)C[C@@H]4C[C@@H](OCCCCCNC(=O)[C@]5(C)C[C@](C)(C(=O)NCCCCCO[C@H]6CC[C@@]7(C)[C@@H](C6)C[C@@H](O)[C@@H]6[C@@H]7C[C@H](O)[C@]7(C)[C@@H]([C@H](C)CCC(=O)O)CC[C@@H]67)C[C@](C)(C(=O)NCCCCCO[C@H]6CC[C@@]7(C)[C@@H](C6)C[C@@H](O)[C@@H]6[C@@H]7C[C@H](O)[C@]7(C)[C@@H]([C@H](C)CCC(=O)O)CC[C@@H]67)C5)CC[C@]4(C)[C@H]3C[C@H](O)[C@]12C` [Example 31], the “IC50Na (TCDC) / IC50Na (Substance)” value is 0.93 and the “IC50 (TCDC) / IC50 (Substance)” value is 1.26.

Consider `C[C@H](CCC(=O)O)[C@H]1CC[C@H]2[C@@H]3[C@H](O)C[C@@H]4C[C@@H](NC(=O)[C@]5(C)C[C@](C)(C(=O)N[C@H]6CC[C@@]7(C)[C@@H](C6)C[C@@H](O)[C@@H]6[C@@H]7C[C@H](O)[C@]7(C)[C@@H]([C@H](C)CCC(=O)O)CC[C@@H]67)C[C@](C)(C(=O)N[C@H]6CC[C@@]7(C)[C@@H](C6)C[C@@H](O)[C@@H]6[C@@H]7C[C@H](O)[C@]7(C)[C@@H]([C@H](C)CCC(=O)O)CC[C@@H]67)C5)CC[C@]4(C)[C@H]3C[C@H](O)[C@]12C` [Example 33], for which the “IC50Na (TCDC) / IC50Na (Substance)” value came out at 1.04 and the “IC50 (TCDC) / IC50 (Substance)” value came to 0.77.

Regarding `CC(CCC(=O)O)C1CCC2C3C(O)CC4CC(OCCNC(=O)C5C(C(=O)NCCOC6CCC7(C)C(C6)CC(O)C6C7CC(O)C7(C)C(C(C)CCC(=O)O)CCC67)C(c6ccccc6)C5C(=O)NCCOC5CCC6(C)C(C5)CC(O)C5C6CC(O)C6(C)C(C(C)CCC(=O)O)CCC56)CCC4(C)C3CC(O)C12C` (centres unmarked) [Example 45], the “IC50Na (TCDC) / IC50Na (Substance)” value is listed as 0.23 and the “IC50 (TCDC) / IC50 (Substance)” value is listed as 0.32.
